Where two headings read alike, the source gives them in different places. Each block holds one compound with its values, some of them ahead of it.
Experiments:
Langerin ECD [1] = molecular target: T1, Langerin ECD (Homo sapiens, UniProt Q9UJ71); assay: 19F NMR reporter displacement assay (RDA), KI determination by titration; type: binding; conditions: for Ki: competitive titration, 0.1 mM reporter ligand 49, 10% DMSO
T1 construct: the trimeric Langerin extracellular domain (ECD) was; made in house; host or cells: E. coli BL21* (DE3)
Experimental: (§1) via SDS PAGE. The protein solution was aliquoted, snap frozen in liquid N2 and stored at -80°C until further usage.
(§2) NMR binding experiments – Langerin
(§3) General remarks. 19F R2-filtered NMR experiments were conducted on a PremiumCompact 600 MHz spectrometer (Agilent). Spectra were processed in MestreNova (Mestrelab Research) and data analysis was performed with OriginPro (OriginLab) . Experiments with the Langerin ECD were perf ormed at a receptor concentration of 50 μM in 25 mM Tris with 10% D 2O, 150 mM NaCl and 5 mM CaCl 2 […]
(§4) at pH 7.8 and 25°C. […]
CaCl2 at pH 7.0 and 25°C. TFA served as an internal reference at a concentration of 50 μM. Apparent transverse relaxation rates R 2,obs for the reporter ligand were determined using the CPMG pulse sequence as previously published. 6,30,31 […]
KI determination. KI values were determined as previously published for Langerin.6 Briefly, titration experiments were conducted at a concentration of 0.1 mM of reporter ligand 49 at five competitor concentrations [I]T (Table S5). […]

Langerin ECD [2] = molecular target: T1, Langerin ECD; assay: 19F R2-filtered NMR screening of the mannoside library (reporter displacement, single competitor concentration); type: binding
Experimental: as §1, §2, §3, §4
CaCl2 at pH 7.0 and 25°C. TFA served as an internal reference at a concentration of 50 μM. Apparent transverse relaxation rates R 2,obs for the reporter ligand were determined using the CPMG pulse sequence as previously published. 6,30,31 Screening of mannoside library . Estimated affinities KI,est were determined in competitive binding experiments at 0.1 mM of reporter ligand 49 at 0.1 mM using the Langerin ECD at a single competitor concentration as previously described.6 Here, receptor concentrations [P]T values were directly calculated from R2,max, the data point at 0.1 mM 49 in absence of competitor. Subsequently, KI values were estimated in a one parameter fit. The screening was conducted in presence of 0% to 10% DMSO at mannoside concentrations between 0.1 and 10 mM. […]

Langerin CRD [3] = molecular target: T2, Langerin CRD (Homo sapiens, UniProt Q9UJ71); assay: 15N HSQC NMR titration, KD determination; type: binding; conditions: 10% DMSO
T2 construct: Langerin carbohydrate recognition domains (CRDs) were expressed insolubly in; made in house; host or cells: E. coli BL21* (DE3)
Experimental: ppm. The acquisition time tacq was set to 2.0 s and the DPFGSE pulse sequence was utilized for solvent suppression.33 Receptor resonances were suppressed using a T1,rho filter at a relaxation time τ of 35 ms.
Epitope mapping. The binding epitope for 43 was determined at a concentration of 500 µM. For each spectrum 512 scans were recorded. The relaxation delay d 1 was set to 6 s and spectra were recorded at 5 different saturation time s tsat varying from 0.25 to 6.00 s. Equation 1 served to derive the STD effect STD for each analyzed resonance from the corresponding on - and off-resonance spectra.34 I0 represents the integral of a resonance in the off-resonance spectrum and Isat represents the integral of a resonance in the on-resonance spectrum.
The apparent saturation rate k sat and the maximal STD effect STDmax were derived from Equation 2 in a two-parameter fit.35 Standard errors were derived directly from the fitting procedures. These parameters were used to calculate the initial slope of the STD build-up curves STD’0 via Equation 3. STD’0 values were normalized and mapped on the corresponding ligand structure. Only resonances for which at least part of a multiplet was isolated were considered for the epitope mapping.
STD = STDmax(1 − eksattsat)
General remarks. 15N HSQC NMR experiments were conducted on an Ascend 700 MHz spectrometer (Bruker).36 Spectra were processed in NMRPipe.37 Data analysis was performed using CCPN Analysis, MatLab (MathWorks) and OriginPro.38 […]
KD determination. KD values were determined in titration experiments at six ligand concentrations [L]T. Samples were prepared via serial dilution. Chemical shift perturbations CSPs for Langerin CRD resonances in the fast or fast-to-intermediate exchange regime observed upon titration with ligand were calculated as previously described via Equation 4.40
A standard deviation σ of 0.02 ppm was previously determined for the measurement of chemical shifts in 15N HSQC NMR experiments with the Langerin CRD. […]

DC-SIGN+ Raji cells = assay: Liposome binding assay, flow cytometry; type: cell-based
Experimental: (§5) If not stated otherwise, all media and supplements for cell culture experiments were purchased from Thermo Fisher Scientific. Raji, THP-1 and U937 cell lines (ATCC) were grown in complete growth medium containing RPMI1640 medium, 10% FCS, 100 U mL-1 Penicillin-Streptomycin and GlutaMax at 37°C and 5% CO2. Cells were monitored with a light microscope (IT40 5PH, VWR) and subcultured every 2 -3 days to maintain cell densities ranging from of 0.5 - 3 x 10^6 cells per mL.
(§6) CLR-expressing cell lines were generated as described before.4,27 Briefly, DC-SIGN, Langerin, murine Langerin and murine Dectin-1 cDNAs (Sinobiologicals) were cloned into a lentiviral BIC-PGK-Zeo-T2a-mAmetrine:EF1A construct by Gibson assembly (NEB) according to the manufacturer’s protocol. HEK293 cells were transfected with the lentiviral vector together with third-generation packaging vectors and viral particles were then used for transduction of Raji cells. In analogy, DC-SIGN and Langerin-expressing THP-1 and U937 cell lines were generated by lentiviral transduction.
(§7) Liposome binding assay – flow cytometry
(§8) Liposome binding to CLR-expressing cells was assayed as previously described.27 Briefly, 0.05 x 10^6 cells were plated in transparent conical-bottom 96 well microtiter plates (Nunc) in a volume of 100 µL medium. Plates were centrifuged at 500 x g for 3 minutes, supernatant was aspirated, and cells were resuspended in 100 µL medium, containing 16 µM liposomes. In control experiments, cells were incubated with medium containing 10 mM EDTA or 50 µg mL-1 mannan for 15 min at 4 °C, prior to liposome application. After 1 h incubation at 4 °C in the dark, cells were centrifuged at 500 x g for 3 min and the supernatant was discarded. Cells wer e resuspended in 200 µL ice-cold medium and analyzed by detecting the co-formulated Alexa 647 dye via flow cytometry with a 654 nm laser and a 670/14 nm filter (Attune Nxt, life technologies).
Flow cytometry data was processed using FlowJo (BD Bioscience). Mean fluorescence intensity (MFI) was further analyzed and plotted using GraphPad Prism (GraphPad […]
To monitor allosteric activation of DC-SIGN by glycomimetic 48, the described protocol was adjusted as follows. DC-SIGN+ Raji cells were plated in transparent conical-bottom 96 well microtiter plates (Nunc) in a volume of 100 µL medium. Plates were centrifuged at 500 x g for 3 minutes, supernatant was aspirated, and cell were resuspended in 25 µL medium supplemented with varying concentrations of monovalent carbohydrates or 0.5 mM 48. Homomultivalent liposomes carrying either natural carbohydrates or 48 were added at a final concentration of 16 µM. Liposome binding was subsequently quantified by measuring Alexa 647 fluorescence in flow cytometry experiments. Statistical significance by means of a student’s t-test was assessed based on averaged normalized MFIs from four biological replicates each conducted as technical duplicates. A p-value < 0.05 was set as significance cut-off.

Langerin+ Raji cells = assay: Liposome binding assay, flow cytometry; type: cell-based
Experimental: as §5, §6, §7, §8
(§9) Flow cytometry data was processed using FlowJo (BD Bioscience). Mean fluorescence

[4] = tested on: murine Dectin-1-expressing Raji cells; assay: Liposome binding assay, flow cytometry; type: cell-based
Experimental: as §5, §6, §7, §8, §9

[5] = tested on: murine Langerin-expressing Raji cells; assay: Liposome binding assay, flow cytometry; type: cell-based
Experimental: as §5, §6, §7, §8, §9

DC-SIGN ECD = molecular target: T3, DC-SIGN ECD (Homo sapiens, UniProt Q9NNX6); assay: 19F NMR reporter displacement assay transferred to DC-SIGN ECD; type: binding; conditions: 0.1 mM reporter 49; for 48 estimated, receptor precipitation above 1 mM
T3 construct: DC-SIGN extracellular domain (ECD); made in house; host or cells: E. coli BL21(DE3), pET30b; gene from GenScript
T3 sequence (Q9NNX6 59-404 limits assumed): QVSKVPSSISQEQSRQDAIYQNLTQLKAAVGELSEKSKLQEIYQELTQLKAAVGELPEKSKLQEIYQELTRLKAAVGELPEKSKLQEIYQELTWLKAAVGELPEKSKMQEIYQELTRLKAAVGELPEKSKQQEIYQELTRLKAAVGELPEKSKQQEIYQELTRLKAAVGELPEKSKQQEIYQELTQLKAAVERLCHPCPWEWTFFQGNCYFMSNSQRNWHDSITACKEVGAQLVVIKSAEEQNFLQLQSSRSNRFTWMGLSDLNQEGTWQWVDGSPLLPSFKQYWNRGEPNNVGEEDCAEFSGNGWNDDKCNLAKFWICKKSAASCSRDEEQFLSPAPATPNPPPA
Experimental: KI values were determined as previously described for Langerin and the DC-SIGN CRD.6 Briefly, competitive binding experiments were conducted with 49 at a concentration of 0.1 mM and varying competitor concentrations [I]T. KI and [P]T values were derived from Equation 8 in a two-parameter fit.
𝜃 = 𝑐𝑜𝑠−1 ( ) ,𝑎 = 𝐾𝐷 + 𝐾𝐼 + [𝐿]𝑇 + [𝐼]𝑇 − [𝑃]𝑇
𝑏 = ([𝐼]𝑇 − [𝑃]𝑇)𝐾𝐷 + ([𝐿]𝑇 − [𝑃]𝑇)𝐾𝐷 + 𝐾𝐼𝐾𝐷, 𝑐 = −𝐾𝐼𝐾𝐷[𝑃]𝑇
For KD determination from 19F NMR CSPs, samples and measurements were set up as described for 19F R2-filtered NMR but at a single relaxation time T = 0 s. CSP 19F, T were calculated from the chemical shift of the 19F resonance of 48 in the presence of protein δT at increasing ligand concentrations and the chemical shift in absence of protein δf at a concentration of 1 mM via Equation 4.
The KD value was calculated from CSP19F, T values in a two -parameter fit using Equation 10, using a fixed protein concentration [P] T and a CSP19F of 0 ppm as a lower bound. CSP19F,b corresponds to the top asymptote and was kept variable. As in Equation 9, pb represents the fraction of bound protein.

Langerin CRD [6] = molecular target: T2, Langerin CRD; set-up: method as in earlier work; conditions: previously published values; ref 6 (SI); cited from earlier work
[7] = calculated utilizing the KI value determined for 45
[8] = calculated utilizing the KI value determined for 46

T2 sequence (Q9UJ71 202-320 limits assumed): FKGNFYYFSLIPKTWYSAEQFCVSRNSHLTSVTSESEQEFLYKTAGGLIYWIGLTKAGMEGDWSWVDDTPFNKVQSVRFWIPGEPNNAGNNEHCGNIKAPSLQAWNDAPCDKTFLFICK
T1 sequence (Q9UJ71 65-328 limits assumed): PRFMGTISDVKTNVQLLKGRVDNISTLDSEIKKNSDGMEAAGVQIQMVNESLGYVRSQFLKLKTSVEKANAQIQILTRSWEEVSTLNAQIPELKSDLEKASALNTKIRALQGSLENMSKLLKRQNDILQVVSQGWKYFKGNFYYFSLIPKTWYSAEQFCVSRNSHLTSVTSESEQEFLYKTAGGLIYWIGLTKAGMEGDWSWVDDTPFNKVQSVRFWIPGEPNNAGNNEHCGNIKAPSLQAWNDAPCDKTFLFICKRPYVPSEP

Relative potency (Langerin ECD [1]; [7]): 1.0
SMILES: CC(=O)NCCO[C@H]1O[C@H](CO)[C@@H](O)[C@H](O)[C@@H]1O [compound 45, reference compound]

Relative potency (Langerin ECD [1]; [7]): 40
Ki (Langerin ECD [1]): 250 ± 70 µM
affinity increase over Man reference 45 (Langerin ECD [1]; from KI): 40 fold
Kd (Langerin CRD [3]): 460 ± 90 µM
SMILES: CC(=O)NCCS(=O)(=O)NC[C@H]1O[C@H](Oc2ccc(-c3ccc(C(=O)O)cc3)cc2C(F)(F)F)[C@@H](O)[C@@H](O)[C@@H]1O [compound 43]

Relative potency (Langerin ECD [1]; [8]): 1.0
Ki (Langerin ECD [1]): 13000 ± 3000 µM
Kd (Langerin CRD [3]): 7000 ± 2000 µM
SMILES: COC1OC(CO)C(O)C(O)C1O (stereo not shown) [compound 46, reference compound]

More lines, now with the values behind:

SMILES: O=C(O)c1ccc(-c2ccc(O[C@H]3O[C@H](CO)[C@@H](O)[C@H](O)[C@@H]3O)c(C(F)(F)F)c2)cc1 [compound 9]
potency estimated from few doses (Langerin ECD [2]; estimated at a single competitor concentration, 0.1 mM reporter ligand 49, 0% to 10% DMSO, read-out: KI,est): 200 µM
affinity increase over reference molecule 1 (Langerin ECD [2]; from KI,est): 45 fold
Relative potency (Langerin ECD [1]; [7]): 44
Relative potency (Langerin ECD [1]; [8]): 57
Ki (Langerin ECD [1]): 230 ± 30 µM
Kd (Langerin CRD [3]): 500 ± 200 µM

SMILES: C[C@H](O)[C@@H](O)[C@@H](O)[C@H](O)C=O [Fuc, fucose, reference compound]
effect of soluble compound on binding of 48 liposomes (DC-SIGN+ Raji cells; soluble Fuc, liposomes with 1.26 mol % 48, p > 0.05, n = 4): did not increase

SMILES: NCCS(=O)(=O)NC[C@H]1O[C@H](Oc2ccc(-c3ccc(C(=O)O)cc3)cc2C(F)(F)F)[C@@H](O)[C@@H](O)[C@@H]1O [compound 42]
binding of homomultivalent liposomes decorated with 2 mol% 42 (DC-SIGN+ Raji cells; 2 mol%, formulations not long-term stable, unspecific binding): binding preference towards DC-SIGN
binding of homomultivalent liposomes decorated with 2 mol% 42 (Langerin+ Raji cells): negligible
binding of homomultivalent liposomes decorated with 2 mol% 42 [4]: negligible
binding of homomultivalent liposomes decorated with 2 mol% 42 [5]: negligible

SMILES: OC[C@H]1OC(O)[C@@H](O)[C@@H](O)[C@@H]1O (stereo partly shown) [Man, mannose, reference compound]
Relative potency (Langerin ECD [1]; [7]): 2.2
Ki (DC-SIGN ECD): 2.4 ± 0.8 mM
Kd (Langerin CRD [6]): 5.8 ± 0.3 mM

From article PMC8603350, “A Remote Secondary Binding Pocket Promotes Heteromultivalent Targeting of DC-SIGN” (Journal of the American Chemical Society, 2021)
